# Experimental data as given in patent publication US12122761B2, “2-azaspiro[3.4]octane derivatives as M4 agonists” (NOVARTIS AG, priority 2019, dated 2024).
# Tests used:
# Format in all cases: cell-based
# [1] = target: T1, human cloned CHRM5 receptor (M5_CHO) (Homo sapiens, UniProt P08912); assay: CHRM5 Ca++ Flux Assay (agonist mode, FDSS 7000EX); settings: for M5 FDSS PA: Percent Activity measured to EC100 of Carbachol; for EC50: agonist mode, geometric mean if tested more than once, read-out: M5 FDSS EC50
# T1 construct: expressed in transfected cells; host or cells: CHO (M5_CHO)
# T1 sequence (P08912 1-532): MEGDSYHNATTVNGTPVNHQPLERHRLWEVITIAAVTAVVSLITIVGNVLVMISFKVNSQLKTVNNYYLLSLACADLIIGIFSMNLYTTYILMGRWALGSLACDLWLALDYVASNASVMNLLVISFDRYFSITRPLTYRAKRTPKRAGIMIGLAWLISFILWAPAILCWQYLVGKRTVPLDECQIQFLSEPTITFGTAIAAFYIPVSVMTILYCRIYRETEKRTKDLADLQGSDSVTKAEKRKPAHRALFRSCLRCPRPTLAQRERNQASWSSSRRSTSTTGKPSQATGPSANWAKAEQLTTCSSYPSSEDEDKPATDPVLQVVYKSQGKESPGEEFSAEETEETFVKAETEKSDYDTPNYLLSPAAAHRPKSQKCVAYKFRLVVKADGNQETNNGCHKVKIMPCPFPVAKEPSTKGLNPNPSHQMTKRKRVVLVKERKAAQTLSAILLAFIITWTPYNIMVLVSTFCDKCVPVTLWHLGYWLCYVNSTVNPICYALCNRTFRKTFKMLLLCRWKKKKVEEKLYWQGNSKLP
# Protocol: (§1) The above examples were characterized by measuring the intracellular mobilization of Ca++ ions caused by signaling events mediated by the receptor. The Intra-cellular Calcium flux levels were captured by the highly sensitive Ca++ indicator, Calcium Assay Kit (BD Biosciences, Catalog Number 640178). The fluorescent activity from all receptors were monitored by the fluorescent imager, FDSS 7000EX (Hamamatsu) over a span of 3 minutes.
# (§2) CHO-K1 cells stably expressing the human cloned CHRM3 receptor (M3_CHO cells) were grown and maintained in a monolayer culture with F12/HAM (Life Technologies) supplemented with 10% Fetal Bovine Serum, 1× Pen-Strep, and 0.4 mg/mL Geneticin in a humidified atmosphere (5% CO2) at 37° C. The cultures were grown to 80-9 0% confluency in T150 flasks (Corning) and washed with 1×DPBS and lifted with 0.05% Trypsin (Life Technologies). The cells were then spun (1K rpm, 3 minutes) and frozen using Recovery Cell Culture Freezing Media (Gibco Technologies). Cells were stored in liquid nitrogen and thawed a day before the assay. A similar procedure was used for cells stably expressing the human cloned CHRM5 receptor (M5_CHO).
# (§3) Prior to the day of the assay, stable M3_CHO or M5_CHO cells were thawed and plated on Greiner 384 well black TC treated plates at 12K cells/well in F12/DMEM supplemented with 10% FBS (Hyclone) and kept overnight in a humidified atmosphere (5% CO2) at 37° C. The next day, cells were loaded with Ca^++ dye (BD Biosciences) using Loading Buffer (HBSS +Ca/+Mg, 20 mM HEPES, 2.5 mM Probenecid) and placed back in cell incubator for a minimum of 1 hour. After incubation, the dye was replaced with Assay Buffer (HBSS −Ca/−Mg, 20 mM HEPES, 2.5 mM Probenecid) and kept at room temperature in the dark before running on cell imager. The FDSS 7000EX (Hamamatsu) was used to acquire Ca^++ traces from cells treated with 11 point dose response of compounds in triplicate in order to generate dose response curves in agonist mode. All compounds were serially diluted in DMSO then prepared in Assay Buffer for Ca^++ flux studies. The dose response curves were generated from the average of triplicate wells obtained from each data point and used a non-linear regression of four parameter dose response algorithm. The Percent Activity (PA) was measured to EC100 of Carbachol.
# [2] = target: T2, human cloned CHRM3 receptor (M3_CHO cells) (Homo sapiens, UniProt P20309); assay: CHRM3 Ca++ Flux Assay (agonist mode, FDSS 7000EX); settings: for M3 FDSS PA: Percent Activity measured to EC100 of Carbachol; for EC50: agonist mode, geometric mean if tested more than once, read-out: M3 FDSS EC50
# T2 construct: expressed in transfected cells; host or cells: CHO-K1
# Protocol: as §1, §2, §3
# [3] = target: T3, human cloned CHRM2 receptor (M2_CHO cells) (Homo sapiens, UniProt P08172); assay: CHRM2 Ca++ Flux Assay (agonist mode, FDSS 7000EX); settings: for M2 FDSS PA: Percent Activity measured to EC100 of Carbachol; for EC50: agonist mode, geometric mean if tested more than once, read-out: M2 FDSS EC50
# T3 construct: expressed in transfected cells; host or cells: CHO-K1
# T3 sequence (P08172 1-466): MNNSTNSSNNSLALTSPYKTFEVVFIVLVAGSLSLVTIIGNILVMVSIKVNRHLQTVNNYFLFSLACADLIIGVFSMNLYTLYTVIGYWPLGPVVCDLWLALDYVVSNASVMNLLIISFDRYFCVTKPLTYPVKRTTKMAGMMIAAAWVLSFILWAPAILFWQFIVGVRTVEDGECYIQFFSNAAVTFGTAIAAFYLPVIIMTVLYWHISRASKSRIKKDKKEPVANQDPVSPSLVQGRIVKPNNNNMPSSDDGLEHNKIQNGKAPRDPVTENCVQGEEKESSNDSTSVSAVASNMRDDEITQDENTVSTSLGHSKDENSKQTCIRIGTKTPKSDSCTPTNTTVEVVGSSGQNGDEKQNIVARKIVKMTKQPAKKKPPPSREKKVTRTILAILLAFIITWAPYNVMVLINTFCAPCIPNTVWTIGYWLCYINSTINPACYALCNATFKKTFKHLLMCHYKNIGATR
# Protocol: as §1
# as §2, with “CHRM2” for “CHRM3”, “(M2_CHO” for “(M3_CHO”, “assay.” for “assay. A similar procedure was used for cells stably expressing the human cloned CHRM5 receptor (M5_CHO).”
# Prior to the day of the assay, stable M2 CHO cells were thawed and plated on Greiner 384 well TC treated plate at a density of 12K cells/well and kept overnight in a humidified atmosphere (5% CO2) at 37° C. The following day, the cells were loaded with Ca^++ dye (BD Biosciences) using Loading Buffer (HBSS +Ca/+Mg, 20 mM HEPES, 2.5 mM Probenecid) and placed back in cell incubator for a minimum of 1 hour and maximum of 2 hours. After incubation, the dye was replaced with Assay Buffer (HBSS −Ca/−Mg, 20 mM HEPES, 2.5 mM Probenecid) supplemented with 20 μM ATP (Sigma Aldrich) and kept at room temperature for 60 minutes prior before running on cell imager. The FDSS 7000EX (Hamamatsu) was used to acquire Ca^++ traces from cells in response to compound treatment and the data was used to generate dose response curves in agonist mode. All compounds were serially diluted in DMSO then prepared in Assay Buffer for Ca^++ flux studies. The dose response curves were generated from the average of triplicate wells obtained from each data point and used a non-linear regression of four parameter dose response algorithm. The Percent Activity (PA) was measured to EC100 of Carbachol.
# T2 sequence (P20309 whole entry): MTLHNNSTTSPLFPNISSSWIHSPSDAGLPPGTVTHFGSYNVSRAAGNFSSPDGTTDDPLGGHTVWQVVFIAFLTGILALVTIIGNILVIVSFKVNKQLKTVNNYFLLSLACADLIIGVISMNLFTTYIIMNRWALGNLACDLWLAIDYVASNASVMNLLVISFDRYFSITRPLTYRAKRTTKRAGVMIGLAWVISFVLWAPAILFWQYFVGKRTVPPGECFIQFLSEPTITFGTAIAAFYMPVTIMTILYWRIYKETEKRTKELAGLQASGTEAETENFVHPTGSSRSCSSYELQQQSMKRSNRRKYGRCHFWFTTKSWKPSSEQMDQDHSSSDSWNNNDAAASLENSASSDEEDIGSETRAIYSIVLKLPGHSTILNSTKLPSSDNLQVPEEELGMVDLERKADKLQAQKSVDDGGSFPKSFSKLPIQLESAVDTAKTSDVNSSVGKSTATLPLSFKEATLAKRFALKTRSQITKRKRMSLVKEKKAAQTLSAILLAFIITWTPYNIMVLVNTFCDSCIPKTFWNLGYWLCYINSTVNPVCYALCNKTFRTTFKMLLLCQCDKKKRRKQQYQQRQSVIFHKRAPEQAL
M5 FDSS PA [1],EC50 [1],M3 FDSS PA [2],EC50 [2],M2 FDSS PA [3],EC50 [3],Structure (SMILES)
0%,> 25 µM,0%,> 25 µM,0%,,"O=C(N1CC2(CC[C@@H](N3CCC(c4ccccc4OCC4CC4)CC3)C2)C1)C1(F)CC1 (single isomer, unassigned) [Example 7O, (R)-(6-(4-(2-(cyclopropylmethoxy)phenyl)piperidin-1-yl)-2-azaspiro[3.4]octan-2-yl)(1-fluorocyclopropyl)methanone or (R)-(6-(4-(2-(cyclopropylmethoxy)phenyl)piperidin-1-yl)-2-azaspiro[3.4]octan-2-yl)(1-fluorocyclopropyl)methanone]"
0%,> 25 µM,0%,> 25 µM,0%,,"O=C1CCCN1CCOc1ccccc1C1CCN([C@@H]2CCC3(C2)CN(C(=O)C2(F)CC2)C3)CC1.O=CO (single isomer, unassigned) [Example 7P, (R)-1-(2-(2-(1-(2-(1-fluorocyclopropane-1-carbonyl)-2-azaspiro[3.4]octan-6-yl)piperidin-4-yl)phenoxy)ethyl)pyrrolidin-2-one formate salt or (S)-1-(2-(2-(1-(2-(1-fluorocyclopropane-1-carbonyl)-2-azaspiro[3.4]octan-6-yl)piperidin-4-yl)phenoxy)ethyl)pyrrolidin-2-one formate salt]"
0%,> 25 µM,0%,> 25 µM,19%,18.6 µM,"O=C(N1CC2(CC[C@@H](N3CCC(c4ccccc4OCC4CC4)CC3)C2)C1)C1(F)CC1 (single isomer, unassigned) [Example 7T, (R)-(6-(4-(2-(cyclopropylmethoxy)phenyl)piperidin-1-yl)-2-azaspiro[3.4]octan-2-yl)(1-fluorocyclopropyl)methanone or (R)-(6-(4-(2-(cyclopropylmethoxy)phenyl)piperidin-1-yl)-2-azaspiro[3.4]octan-2-yl)(1-fluorocyclopropyl)methanone]"

# Continued, molecule first:
Structure (SMILES),M5 FDSS PA [1],EC50 [1],M3 FDSS PA [2],EC50 [2],M2 FDSS PA [3],EC50 [3]
"O=C(N1CC2(CC[C@@H](N3CCC(c4ccccc4OCCO)CC3)C2)C1)C1(F)CC1 (single isomer, unassigned) [Example 7N, (R)-(1-fluorocyclopropyl)(6-(4-(2-(2-hydroxyethoxy)phenyl)piperidin-1-yl)-2-azaspiro[3.4]octan-2-yl)methanone or (S)-(1-fluorocyclopropyl)(6-(4-(2-(2-hydroxyethoxy)phenyl)piperidin-1-yl)-2-azaspiro[3.4]octan-2-yl)methanone]",0%,> 25 µM,0%,> 25 µM,0%,
"O=C(N1CC2(CC[C@@H](N3CCC(c4ccccc4OCC4CCOCC4)CC3)C2)C1)C1(F)CC1 (single isomer, unassigned) [Example 7Q, (R)-(1-fluorocyclopropyl)(6-(4-(2-((tetrahydro-2H-pyran-4-yl)methoxy)phenyl)piperidin-1-yl)-2-azaspiro[3.4]octan-2-yl)methanone or (S)-(1-fluorocyclopropyl)(6-(4-(2-((tetrahydro-2H-pyran-4-yl)methoxy)phenyl)piperidin-1-yl)-2-azaspiro[3.4]octan-2-yl)methanone]",0%,> 25 µM,0%,> 25 µM,0%,
"Cc1nnc(COc2ccccc2C2CCN([C@@H]3CCC4(C3)CN(C(=O)C3(F)CC3)C4)CC2)s1 (single isomer, unassigned) [Example 7R, (R)-(1-fluorocyclopropyl)(6-(4-(2-((5-methyl-1,3,4-thiadiazol-2-yl)methoxy)phenyl)piperidin-1-yl)-2-azaspiro[3.4]octan-2-yl)methanone or (S)-(1-fluorocyclopropyl)(6-(4-(2-((5-methyl-1,3,4-thiadiazol-2-yl)methoxy)phenyl)piperidin-1-yl)-2-azaspiro[3.4]octan-2-yl)methanone]",0%,> 25 µM,0%,> 25 µM,15%,6.59 µM
"CCOc1ccccc1C1CCN([C@@H]2CCC3(C2)CN(C(=O)C2(F)CC2)C3)CC1 (single isomer, unassigned) [Example 7S, (R)-(6-(4-(2-ethoxyphenyl)piperidin-1-yl)-2-azaspiro[3.4]octan-2-yl)(1-fluorocyclopropyl)methanone or (S)-(6-(4-(2-ethoxyphenyl)piperidin-1-yl)-2-azaspiro[3.4]octan-2-yl)(1-fluorocyclopropyl)methanone]",0%,> 25 µM,0%,> 25 µM,0%,
"Cc1noc(C)c1COc1ccccc1C1CCN([C@@H]2CCC3(C2)CN(C(=O)C2(F)CC2)C3)CC1 (single isomer, unassigned) [Example 7U, (R)-(6-(4-(2-((3,5-dimethylisoxazol-4-yl)methoxy)phenyl)piperidin-1-yl)-2-azaspiro[3.4]octan-2-yl)(1-fluorocyclopropyl)methanone or (S)-(6-(4-(2-((3,5-dimethylisoxazol-4-yl)methoxy)phenyl)piperidin-1-yl)-2-azaspiro[3.4]octan-2-yl)(1-fluorocyclopropyl)methanone]",0%,> 25 µM,0%,> 25 µM,0%,
